The record followed here is patent US11479538B2, “Tetrazolone-substituted dihydropyridinone MGAT2 inhibitors” (BRISTOL-MYERS SQUIBB COMPANY, priority 2014, dated 2022).

For this assay, the target named is human MGAT-2 (Homo sapiens (Human), UniProt Q3SYC2). The assay can be described thus: MGAT LCMS Assay. Format: biochemical. The settings on record: human recombinant MGAT-2 membranes expressed in Sf9 cells; LC/MS readout of diolein; read-out: h-MGAT LCMS IC50. As for the experimental part:
The MGAT enzyme reactions were performed in Corning FALCON® 96-well polypropylene plates, in a total volume of 60 μL of 50 mM potassium phosphate buffer pH 7.4, containing a final concentration of 100 μM 2-oleoylglycerol, 15 μM oleoyl-coenzyme A and […] human or mouse MGAT-2 or […] rat recombinant MGAT-2 membranes expressed in Sf9 cells. Assay plates were run through a fully automated robotics system and shaken for 5 seconds every minute for a total 10 minutes. The reactions were then quenched with 120 μL of ice cold methanol containing 1 μg/mL 1,2-distearoyl-rac-glycerol as the internal standard. Plates were shaken for 2 minutes and spun down to remove protein precipitation. After the spin, samples were transferred to LC/MS compatible PCR plates. For LC/MS analysis, a ThermoFisher Surveyor pump, utilizing a Waters SYMMETRY® C8, 50×2.1 mm column, was used for the chromatography of enzyme products. The buffer system consists of 0.1% formic acid in water with a mobile phase consisting 0.1% formic acid in methanol. The shallow gradient is 90-100% mobile phase in 0.2 min with a total run time of 2.3 min. […]
The exemplified Examples disclosed below were tested in the MGAT2 in vitro assays described above and were found having MGAT2 inhibitory activity. Table 1 below lists human MGAT2 IC50 values measured for the following examples.

Chain of human MGAT-2 (Q3SYC2 whole entry): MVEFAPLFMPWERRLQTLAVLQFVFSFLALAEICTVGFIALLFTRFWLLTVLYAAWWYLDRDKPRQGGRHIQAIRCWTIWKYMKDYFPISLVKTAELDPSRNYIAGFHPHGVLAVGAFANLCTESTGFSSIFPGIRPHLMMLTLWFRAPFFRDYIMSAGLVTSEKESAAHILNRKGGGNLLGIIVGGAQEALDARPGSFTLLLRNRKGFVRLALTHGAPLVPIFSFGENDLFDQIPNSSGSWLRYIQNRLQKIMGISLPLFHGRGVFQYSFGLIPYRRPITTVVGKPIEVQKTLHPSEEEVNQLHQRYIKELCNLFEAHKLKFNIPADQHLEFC

As to `O=C1N[C@@](c2ccc(OCCCC(F)(F)F)cc2F)(C(F)(F)F)CC(c2ncc(C3CC3)s2)=C1n1nn[nH]c1=O` [Example 22, (S)-4-(5-cyclopropylthiazol-2-yl)-6-(2-fluoro-4-(4,4,4-trifluorobutoxy)phenyl)-3-(5-oxo-4,5-dihydro-1H-tetrazol-1-yl)-6-(trifluoromethyl)-5,6-dihydropyridin-2(1H)-one], the IC50 stood at 2 nM.
